Nine compounds from patent US7132261B2, “Orphan receptor” (Karo Bio AB, priority 1995, dated 2006) can be followed below.

Assay [1] concerns the target T1, clone 29 protein (rERβ) (Rattus norvegicus, UniProt Q62986). Kind of assay: Transactivation analysis in CHO-cells (ERE-ALP reporter, clone 29 expression vector). It is filed as cell-based. On the set-up: The open reading frame encodes a protein of 485 amino acid residues (counted from the first methionine); expressed in transfected cells; host or cells: CHO-K1 cells transiently transfected with pCMV29 and pERE-ALP. Particulars: for stimulation of transcriptional activity of clone 29 protein: highest concentration tested 1000 nM. An excerpt: The expression vector pCMV29 was constructed by inserting the 2.6 kb clone 29 fragment in the EcoRI site of the expression vector pCMV5 (Andersson, S., Davis, D.L., Dahlbäck, H., Jörnvall, H., & Russell, D.W. (1989) J. Biol. Chem. 264, 8222–8229). The pERE-ALP reporter construct contains a secreted form of the plancental alkaline phosphatase gene (Berger, J., Hauber, J., Hauber, R., Geiger, R., & Cullen, B.R. (1988) Gene 66 1–10) and the MMTV-LTR in which the glucocorticoid response elements were replaced by the vitellogenin promoter estrogen response element (ERE). The vector pCMV29 containing the clone 29 fragment was deposited with NCIMB, Ferguson Building, Craibstone Estate, Bucksburn, Aberdeen, Scotland, UK AB21 9YA in accordance with the Budapest Treaty on the International Recognition of the Deposit of Microorganisms for the Purposes of Patent Procedure on 26 May 2006, under accession No. NCIMB 41404. The deposit was named “Escherichia coli DH5 prat ER (CmV29)”. All restrictions on the availability to the public of the material deposited will be irrevocably removed upon the granting of a patent.
CHO-K1 cells were seeded in 12-well plates at approximately 1.7×10^5 cells per well in phenol-red free Ham F12 medium with 5% FCS (dextran-coated charcoal treated) and 2 mM Lglutamine. After 24 h the cells were transfected with 250 ng pERE-ALP vector and 50 ng pCMV29 using lipofectamine (Gibco) according to the manufacturer's instructions. After five hours of incubation the cells were washed and refed with 0.5 ml phenol-red free Coon's F-12 medium containing 5% serum substitute (SRC 3000, Tissue Culture Services Ltd., Botolph Claydon, Buckingham, UK) 2 mM Lglutamine and 50 μg/ml gentamicin plus hormones as indicated. After 48 h the medium was assayed for alkaline phosphatase (ALP) activity by a chemiluminescence assay. A 10 μl aliquot of the cell culture medium was mixed with 200 μl assay buffer (10 mM diethanolamine pH 10.0 1 mM MgCl2 and 0.5 mM CSPD (Tropix Inc. Boston, USA) ) and incubated for 20 min at 37° C. before measurement in a microplate luminometer (Luminoskan; Labsystems, Finland) with integral measurement for 1 second. The ALP activity of ERE-reporter alone was set at 1.
To investigate the transcriptional regulatory properties of clone 29 protein, we performed co-transfection experiments in which CHO cells were transfected with a clone 29 protein expression vector and/or an estrogen-responsive reporter gene construct. […] CHO-cells were transiently transfected with the ERE-reporter plasmid and the clone 29 protein expression plasmid. […] Alkaline phosphatase activity (ALP) was measured as described and the activity in the absence of ligand (control) was set at 1.

Assay [2] concerns the target T1, clone 29 protein (rERβ). The assay can be described thus: Ligand competition studies against [3H]E2, clone 29 protein in reticulocyte lysate. The format is binding. Also noted: The open reading frame encodes a protein of 485 amino acid residues (counted from the first methionine). The conditions noted are these: for efficient competition with [3H]E2 for binding: 5 nM [3H]E2, highest concentrations used (1000 fold excess); for times less effective as competitor (compared with unlabelled E2): 5 nM [3H]E2, 16 h at 8° C. An excerpt: Bound and unbound steroids were separated with a dextran-coated charcoal assay (Ekman, P., Barrack, E. R., Greene, G. L., Jensen, E. V., & Walsh, P. C. (1983) J. Clin. Endocrinol Metab. 57, 166–176).

Another assay deals with T2, rERβ (Rattus norvegicus, UniProt Q62986).
T2 construct: Clone 29 protein consists of 485 amino acid residues; made in house; host or cells: rabbit reticulocyte lysate in vitro translation (Promega)
Kind of assay: Equilibrium binding saturation experiments with [125I]-E2, rERβ. An excerpt: Equilibrium binding saturation experiments (Kd-determinations)

Where two headings read alike, the source gives them in different places.

As usually defined, the Kd is the concentration at which binding is half-saturated.

T1 sequence (Q62986 46-530): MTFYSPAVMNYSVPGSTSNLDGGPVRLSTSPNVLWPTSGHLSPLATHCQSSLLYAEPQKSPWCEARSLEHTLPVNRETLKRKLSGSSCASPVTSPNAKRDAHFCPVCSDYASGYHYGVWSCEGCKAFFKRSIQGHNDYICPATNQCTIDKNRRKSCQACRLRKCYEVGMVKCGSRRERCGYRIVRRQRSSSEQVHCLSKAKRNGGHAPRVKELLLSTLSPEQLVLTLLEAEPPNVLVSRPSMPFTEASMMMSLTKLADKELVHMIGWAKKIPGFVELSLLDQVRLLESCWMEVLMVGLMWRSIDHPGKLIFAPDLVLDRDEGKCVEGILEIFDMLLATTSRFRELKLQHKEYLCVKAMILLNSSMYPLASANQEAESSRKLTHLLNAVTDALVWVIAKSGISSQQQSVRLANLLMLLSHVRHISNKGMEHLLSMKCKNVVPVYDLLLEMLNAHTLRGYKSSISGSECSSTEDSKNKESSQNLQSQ
T2 sequence (Q62986 46-530): as above

In the case of `C[C@]12CC[C@H](O)C[C@@H]1CC[C@@H]1[C@@H]2CC[C@]2(C)[C@@H](O)CC[C@@H]12` [5α-androstane-3β,17β-diol], at clone 29 protein (rERβ) [1], the “stimulation of transcriptional activity of clone 29 protein” value (“stimulation” below) is “could stimulate transcriptional activity, albeit at higher concentrations”.

As to `CC(=O)[C@H]1CC[C@H]2[C@@H]3CCC4=CC(=O)CC[C@]4(C)[C@H]3CC[C@]12C` [progesterone], the “efficient competition with [3H]E2 for binding” value (from here on “efficient competition”) on clone 29 protein (rERβ) [2] is “Neither testosterone, progesterone, corticosterone nor 5α-androstane-3α,17β-diol were efficient competitors”. Besides, on clone 29 protein (rERβ) [1], the “stimulation” value was “could not stimulate transcriptional activity”.

On to `C[C@]12CC[C@@H](O)C[C@@H]1CC[C@@H]1[C@@H]2CC[C@]2(C)[C@@H](O)CC[C@@H]12` [5α-androstane-3α,17β-diol], for which, at clone 29 protein (rERβ) [2], the “times less effective as competitor (compared with unlabelled E2)” value is recorded as 150 times and the “efficient competition” value is given as “Neither testosterone, progesterone, corticosterone nor 5α-androstane-3α,17β-diol were efficient competitors”. Further, on clone 29 protein (rERβ) [1], the “stimulation” value is listed as “could not stimulate transcriptional activity”.

Take `C[C@]12CC[C@@H]3c4ccc(O)cc4CC[C@H]3[C@@H]1C[C@@H](O)[C@@H]2O` [estriol]: the “times less effective as competitor (compared with unlabelled E2)” value on clone 29 protein (rERβ) [2] is 15 times.

Turning to `C[C@]12C[C@H](O)[C@H]3[C@@H](CCC4=CC(=O)CC[C@@]43C)[C@@H]1CC[C@@H]2C(=O)CO` [corticosterone], the “efficient competition” value at clone 29 protein (rERβ) [2] was “Neither testosterone, progesterone, corticosterone nor 5α-androstane-3α,17β-diol were efficient competitors”.

For `C[C@]12CC[C@H]3[C@@H](CCC4=CC(=O)CC[C@@]43C)[C@@H]1CC[C@@H]2O` [testosterone], at clone 29 protein (rERβ) [2], the “efficient competition” value is recorded as “Neither testosterone, progesterone, corticosterone nor 5α-androstane-3α,17β-diol were efficient competitors”. Also, the “stimulation” value at clone 29 protein (rERβ) [1] is on record as “could not stimulate transcriptional activity”.

Turning to `C[C@]12CC[C@@H]3c4ccc(O)cc4CC[C@H]3[C@@H]1C[C@@H](I)[C@@H]2O` [[^125I]-E2, 16α[^125I]-17β-estradiol], the dissociation constant (Kd) at rERβ (read-out: Kd (Hill-plot)) amounted to 0.24 nM; at rERβ (read-out: Kd (Scatchard-plot)), 0.42 nM.

Consider `CCCCN(C)C(=O)CCCCCCCCCC[C@@H]1Cc2cc(O)ccc2[C@H]2CC[C@]3(C)[C@@H](O)CC[C@H]3[C@H]12` [ICI-1624384], for which, on clone 29 protein (rERβ) [1] (no E2 added, not shown), the “suppression of the constitutive transcriptional activity of clone 29 protein” value was “could be suppressed”.

`CC/C(=C(/CC)c1ccc(O)cc1)c1ccc(O)cc1` [diethylstilbestrol]: the “times less effective as competitor (compared with unlabelled E2)” value on clone 29 protein (rERβ) [2] is given as 5 times.
